Measurements taken from US7112555B1, “Use of glycuronic polysaccharides and oligosaccharides as phytosanitary products and/or fertiliser” (Centre National de la Recherche Scientifique, priority 1999, dated 2006).

Key:
1,3β-D-glucanase = 1,3β-D-glucanase response induced in the protoplasts of Rubus; format: cell-based, Rubus fruticosus L.; conditions: for 1,3-β-D-glucanase activity (% control): elicitor 50 nM, 2.10^6 protoplasts
Experimental: (§1) Experimental conditions: (1) preparation of protoplasts from cell suspensions of Rubus fruticosus L.; (2) incubation, or not, of n samples of 2.10^6 protoplasts in the presence of “elicitors” (1,4-D-glucuronan polymers and 1,4β-D-galacturonan (400 μg/L) polymers, 1,4β-D-glucuronan oligomers of average DP 8, 1,4β-D-mannuronan oligomers of DP 4, and 1,4β-D-guluronan oligomers of DP 4 (50 nM)); (3) after 20 minutes, the protoplasts whether may be treated or not, are subjected to enzymatic extraction. 2 μg of proteins are used per enzymatic test, and per incubation period. The viability of the protoplasts is maintained at 95% for an experimental period of 6 hours; the Evans blue viability test used verifies the integrity of the plasmalemma.
Methodology: measurement of activity (1,3β-D-glucanase) is based on the calorimetric dosage (ferricyan test) of the substrate-reducing units (reduced hexamer from laminarin) released during hydrolysis. Based on the kinetics developed, curves are traced whose equations make it possible to calculate the speed of the enzymatic reaction. 2 kinetics, at least, are developed per sample, and per experimental “set”. In general, at least 8 kinematics from samples of 2 independent “sets” are developed.
Results: the enzymatic activation elicited in the protoplasts is expressed as a % of the activity in the controls.

[1] = tested on: xyloglucan endotransglycolase; assay: Xyloglucan endotransglycolase (XET) response induced in protoplasts of Rubus; format: cell-based; conditions: 50 nM, in 20 minutes
Experimental: Experimental elicitation conditions. 2.10^6 protoplasts in 1 ml Tris-HCl buffer (pH 4.8) are incubated in the presence, or not, of an elicitor (50 nM) or of a hormone (50 nM): mannuronan oligomer of DP4 or glucuronan oligomer of DP8 or gibberellin GA3. After 20, 40, 60, 100 and 120 minutes of interaction, the protoplasts are recovered by centrifugation, then subjected to enzymatic extraction.
Methodology: measurement of XET activity is carried out in the wells of microtitration plates in 4 stages. Stage 1: immobilization of the acceptor, i.e. the neoglycoprotein XXLG≈BSA. Stage 2: introduction of the reaction medium (XET enzymatic extraction (equivalent to 1 μg of proteins) substrate marked DIG, i.e. XG≈DIG in the Tris-HC1 buffer, pH=7, 25 mM). Stage 3: immunomarking according to the anti-DIG marked peroxydase sequence, anti-peroxydase marked peroxydase. Stage 4: dosage of the peroxydase activity in a citrate-phosphate buffer ([…], pH 5.5).
The peroxydase activity is measured at 492 nm. At least 3 curves of peroxydase activity are traced per experimental condition, and the experiments are carried out using 3 protoplast suspensions. The XET activity is measured by the slope (ΔA 492) of the curve deduced by linear regression from 9 peroxydase kinetics curves.

1,4β-D-glucanase = 1,4β-D-glucanase response induced in protoplasts of Rubus; format: cell-based, Rubus fruticosus L.; conditions: elicitor 50 nM, 20 minutes, 2.10^6 protoplasts
Experimental: as §1
Experimental elicitation conditions: identical to those reported above.
Methodology: measurement of activity (1,4β-D-glucanase) is based on the calorimetric dosage (ferricyan test) described above of the substrate-reducing units (reduced cellopentaose) released during hydrolysis.

1,4β-D-glucuronan polymer was tested, and the “amplification factor of 1,3-β-D-glucanase activity in plant protoplasts” value (1,3β-D-glucanase; nanomolar concentration, in 20 minutes) was 1.3.
In the case of `C=C1C[C@]23C[C@@]1(O)CC[C@H]2[C@@]12C=C[C@H](O)[C@](C)(C(=O)O1)[C@H]2[C@@H]3C(=O)O` [GA3, gibberellin GA3, reference compound], the “amplification factor of XET activity versus non-elicited protoplasts” value [1] is reported as 1.12.
With glucuronan oligomer of DP8 the “amplification factor of XET activity versus non-elicited protoplasts” value [1] was 1.62.
oligo 1,4-β-D-guluronan of DP 4 [e] was tested, and the “1,4β-D-glucanase activity (% control)” value (1,4β-D-glucanase) was 101 % control, the “effectiveness of 1,3-β-D-glucanase induction among the other products tested” value (1,3β-D-glucanase; 50 nM, 20 minutes) was “most effective” and the “1,3-β-D-glucanase activity (% control)” value (1,3β-D-glucanase; 20 minutes) was 146 % control.
For oligo 1,4-β-D-mannuronan of DP 4, the “1,3-β-D-glucanase activity (% control)” value (1,3β-D-glucanase; 20 minutes) was 122 % control and the “amplification factor of XET activity versus non-elicited protoplasts” value [1] was 2.12.
